Test results from US7138361B2, “Herbicidal heterocycles” (E. I. du Pont de Nemours and Company, priority 2000, dated 2006).

What was measured:
Assay type in all cases: in vivo
[1] = tested on: pigweed (Amaranthus retroflexus); test: Test B preemergence
Outline: (§1)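 Greenhouse test: chemicals are formulated in a surfactant-containing non-phytotoxic solvent and applied either preemergence to planted seeds or postemergence to plants 2 to 18 cm tall. Response is rated visually versus controls after 13 to 15 days, 0 meaning no effect and 100 complete control.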

[2] = tested on: morning glory (Ipomoea hederacea); test: Test B preemergence
Outline: as §1

[3] = tested on: corn (Zea mays); test: Test B preemergence
Outline: as §1

[4] = tested on: rice (Oryza saliva); test: Test B preemergence
Outline: as §1

[5] = tested on: lambsquarters (Chenopodium album); test: Test B preemergence
Outline: as §1

[6] = tested on: velvetleaf (Abutilon theophrasti); test: Test B preemergence
Outline: as §1

[7] = tested on: barnyardgrass (Echinochloa crus-galli); test: Test B preemergence
Outline: as §1

[8] = tested on: Surinam grass (Brachiaria decumbens); test: Test B preemergence
Outline: as §1

[9] = tested on: crabgrass (Digitaria sanguinalis); test: Test B preemergence
Outline: as §1

[10] = tested on: cocklebur (Xanthium strumarium); test: Test B preemergence
Outline: as §1

[11] = tested on: giant foxtail (Setaria faberii); test: Test B preemergence
Outline: as §1

[12] = tested on: smallflower flatsedge (Cyperus difformis); test: Test C flooded paddy test; conditions: for Flatsedge plant response rating: Flooded Paddy, scale 0 to 100, 0 no effect, 100 complete control; for Plant response rating, Flatsedge: flooded paddy test, scale 0 to 100 (0 no effect, 100 complete control)
Outline: (§2)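 Greenhouse-maintained for 12 to 14 days after treatment, the paddy plants (2-leaf stage at application) were scored visually against controls. A score of 0 denotes no effect and a score of 100 denotes complete control.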

[13] = tested on: duck salad (Heteranthera limosa); test: Test C flooded paddy test; conditions: for Ducksalad plant response rating: Flooded Paddy, scale 0 to 100, 0 no effect, 100 complete control; for Plant response rating, Ducksalad: flooded paddy test, scale 0 to 100 (0 no effect, 100 complete control)
Outline: as §2

[14] = tested on: rice (Oryza saliva); test: Test C flooded paddy test; conditions: for Rice plant response rating: Flooded Paddy, scale 0 to 100, 0 no effect, 100 complete control; for Plant response rating, Rice: flooded paddy test, scale 0 to 100 (0 no effect, 100 complete control)
Outline: as §2

[15] = tested on: barnyardgrass (Echinochloa crus-galli); test: Test C flooded paddy test; conditions: for Barnyardgrass plant response rating: Flooded Paddy, scale 0 to 100, 0 no effect, 100 complete control; for Plant response rating, Barnyardgrass: flooded paddy test, scale 0 to 100 (0 no effect, 100 complete control)
Outline: as §2

[16] = tested on: wheat (Triticum aestivum); test: Test B postemergence
Outline: as §1

[17] = tested on: pigweed (Amaranthus retroflexus); test: Test B postemergence
Outline: as §1

[18] = tested on: morning glory (Ipomoea hederacea); test: Test B postemergence
Outline: as §1

[19] = tested on: corn (Zea mays); test: Test B postemergence
Outline: as §1

[20] = tested on: blackgrass (Alopecurus myosuroides); test: Test B postemergence
Outline: as §1

[21] = tested on: lambsquarters (Chenopodium album); test: Test B postemergence
Outline: as §1

[22] = tested on: velvetleaf (Abutilon theophrasti); test: Test B postemergence
Outline: as §1

[23] = tested on: barnyardgrass (Echinochloa crus-galli); test: Test B postemergence
Outline: as §1

[24] = tested on: Surinam grass (Brachiaria decumbens); test: Test B postemergence
Outline: as §1

[25] = tested on: wild oat (Avena fatua); test: Test B postemergence
Outline: as §1

[26] = tested on: crabgrass (Digitaria sanguinalis); test: Test B postemergence
Outline: as §1

[27] = tested on: cocklebur (Xanthium strumarium); test: Test B postemergence
Outline: as §1

[28] = tested on: giant foxtail (Setaria faberii); test: Test B postemergence
Outline: as §1

[29] = Preemergence, Rate 500 g/ha, scale 0 to 100, 0 no effect, 100 complete control
[30] = preemergence, Rate 125 g/ha, scale of 0 to 100 where 0 is no effect and 100 is complete control, 13 to 15 days
[31] = Rate 125 g/ha, scale 0 to 100, 0 no effect, 100 complete control
[32] = Rate 500 g/ha, scale 0 to 100, 0 is no effect, 100 is complete control, 13 to 15 days

CCCCC(CCCC)c1ccn(C2OCN(c3cccc(OC(F)(F)F)c3)C2=O)n1 (stereo not shown) [Compound 113]
Plant response rating, Pigweed [1, 29]: 0
Plant response rating, Pigweed [1, 30]: 0
Plant response rating, Morningglory [2, 29]: 0
Plant response rating, Morningglory [2, 30]: 0
Plant response rating, Corn [3, 29]: 0
Plant response rating, Corn [3, 30]: 0
Plant response rating, Rice [4, 29]: 0
Plant response rating, Rice [4, 30]: 0
Plant response rating, Lambsquarters [5, 29]: 0
Plant response rating, Lambsquarters [5, 30]: 0
Plant response rating, Velvetleaf [6, 29]: 0
Plant response rating, Velvetleaf [6, 30]: 0
Plant response rating, Barnyardgrass [7, 29]: 0
Plant response rating, Barnyardgrass [7, 30]: 0
Plant response rating, Surinam grass [8, 29]: 0
Plant response rating, Surinam grass [8, 30]: 0
Plant response rating, Crabgrass [9, 29]: 0
Plant response rating, Crabgrass [9, 30]: 0
Plant response rating, Cocklebur [10, 29]: 0
Plant response rating, Cocklebur [10, 30]: 0
Plant response rating, Foxtail, Giant [11, 29]: 0
Plant response rating, Foxtail, Giant [11, 30]: 0
Flatsedge plant response rating ([12]; Rate 250 g/ha): 0
Flatsedge plant response rating ([12]; Rate 500 g/ha): 0
Plant response rating, Flatsedge ([12]; Rate 62 g/ha): 0
Plant response rating, Flatsedge ([12]; Rate 125 g/ha): 0
Ducksalad plant response rating ([13]; Rate 250 g/ha): 0
Ducksalad plant response rating ([13]; Rate 500 g/ha): 0
Plant response rating, Ducksalad ([13]; Rate 62 g/ha): 0
Plant response rating, Ducksalad ([13]; Rate 125 g/ha): 0
Rice plant response rating ([14]; Rate 250 g/ha): 0
Rice plant response rating ([14]; Rate 500 g/ha): 0
Plant response rating, Rice ([14]; Rate 62 g/ha): 0
Plant response rating, Rice ([14]; Rate 125 g/ha): 0
Barnyardgrass plant response rating ([15]; Rate 250 g/ha): 0
Barnyardgrass plant response rating ([15]; Rate 500 g/ha): 0
Plant response rating, Barnyardgrass ([15]; Rate 62 g/ha): 0
Plant response rating, Barnyardgrass ([15]; Rate 125 g/ha): 0
Plant response rating, Wheat [16, 31]: 30
Plant response rating, Wheat [16, 32]: 30
Plant response rating, Pigweed [17, 31]: 100
Plant response rating, Pigweed [17, 32]: 100
Plant response rating, Morningglory [18, 31]: 0
Plant response rating, Morningglory [18, 32]: 30
Plant response rating, Corn [19, 31]: 0
Plant response rating, Corn [19, 32]: 0
Plant response rating, Blackgrass [20, 31]: 0
Plant response rating, Blackgrass [20, 32]: 0
Plant response rating, Lambsquarters [21, 31]: 30
Plant response rating, Lambsquarters [21, 32]: 100
Plant response rating, Velvetleaf [22, 31]: 0
Plant response rating, Velvetleaf [22, 32]: 0
Plant response rating, Barnyardgrass [23, 31]: 0
Plant response rating, Barnyardgrass [23, 32]: 0
Plant response rating, Surinam grass [24, 31]: 0
Plant response rating, Surinam grass [24, 32]: 0
Plant response rating, Wild Oat [25, 31]: 40
Plant response rating, Wild Oat [25, 32]: 40
Plant response rating, Crabgrass [26, 31]: 40
Plant response rating, Crabgrass [26, 32]: 40
Plant response rating, Cocklebur [27, 31]: 0
Plant response rating, Cocklebur [27, 32]: 70
Plant response rating, Foxtail, Giant [28, 31]: 0
Plant response rating, Foxtail, Giant [28, 32]: 20
